Data reported in US20260191835A1, “COMBINATIONS COMPRISING A MENIN-MLL INHIBITOR AND AT LEAST ONE OTHER THERAPEUTIC AGENT” (JANSSEN PHARMACEUTICA NV, priority 2022, published 2026).

Tested on: MOLM-13 cells
Assay: In vitro proliferation (Cell Titer Glo, 6 days) of Compound 51 in combination with gilteritinib, midostaurin, idarubicin or decitabine, MOLM-13
Type: cell-based, human
Parameters: key to maxR call (synergy/antagonism), combination with Gilteritinib on MOLM-13 cell proliferation / Synergy/antagonism call (maxR test), MOLM-13 Cell Proliferation: synergy is indicated by “**”; antagonism is indicated by “*”; no asterisk: absence of any asterisk indicates an additive effect
Method: 3) In Vitro Proliferation—Menin-MLL Inhibitor in Combination with FLT3 Inhibitor (Gilteritinib or Midostaurin), DNA Intercalating Agent (Idarubicin) or Hypomethylating Agent (Decitabine)
The effect of Compound 51 in combination with gilteritinib, midostaurin, idarubicin or decitabine was determined in proliferation assays.
AML cell lines MOLM-13, OCI-AML3 and MV4-11 were purchased from DSMZ. MOLM-13 were grown in RPMI medium supplemented with 10% Fetal Bovine Serum (FBS) and 1% penicillin/streptomycin. MV4-11 cells were grown in IMDM medium supplemented with 10% FBS and 1% penicillin/streptomycin. OCI-AML3 cells were cultured in 80-90% alpha-MEM (with or without ribo- and deoxyribonucleosides)+10-20% FBS. All cell lines were cultured at 37° C. in 5% CO2 atmosphere.
AML cell lines (10-20×10^3 cells/well) were seeded in 96-well plates and grown for 6 days in serum (10%)-containing medium in the presence or absence of inhibitors at the indicated concentrations. Proliferation was analyzed by means of a Cell Titer Glo assay using the […] (Promega, Madison, WI, USA), according to the manufacturer's instructions. Data are mean with standard deviation from two to four independent experiments in technical triplicates.
R-based Biochemically Intuitive Generalized Loewe (BIGL) model implemented with a highest single agent (HSA) null model. Specifically, the BIGL methodology was applied to calculate drug-drug interactions (Van der Borght, K., Tourny, A., Bagdziunas, R. et al. BIGL: Biochemically Intuitive Generalized Loewe null model for prediction of the expected combined effect compatible with partial agonism and antagonism. Sci Rep 7, 17935 (2017); Thas, O., Tourny, A., Verbist, B., Hawinkel, S., Nazarov, M., Mutambanengwe, K., & Bijnens, L. Statistical detection of synergy: New methods and a comparative study. Pharmaceutical Statistics (2021)).
Synergy matrix results of the BIGL analysis of the cell line data with HSA as mean model calculated on the basis of the cellular metabolic activity using Cell Titer-Glo assay. Bootstrap confidence intervals are indicated. Effect sizes and their confidence intervals are shown. […] No significant average effect if zero is included in the interval.

[1] = Compound 51 0.01 μm, Gilteritinib 0.01 μM
[2] = Compound 51 0.05 μm + Decitabine 0.015 μM
[3] = Compound 51 0.05 μm + Decitabine 0.15 μM
[4] = Compound 51 0.05 μm + Idarubicin 0.001 μM
[5] = Compound 51 0.05 μm + Midostaurin 0.006 μM

Compound: CC(=O)N1CCC(CN2CC[C@@H](Cc3cn(-c4ccc(F)cc4C(=O)N(C)C(C)C)c4cncc(C)c34)C2)CC1 [Compound 51]
- Effect size (BIGL, HSA null model), MOLM-13 Cell Proliferation (Compound 51 0.0001 μm + Idarubicin 0.0005 μM): −0.05
- Effect size (BIGL, HSA null model), MOLM-13 Cell Proliferation (Compound 51 0.0001 μm + Idarubicin 0.001 μM): −0.02
- Effect size (BIGL, HSA null model), MOLM-13 Cell Proliferation (Compound 51 0.0001 μm + Idarubicin 0.0025 μM): 0.07
- Effect size (BIGL, HSA null model), MOLM-13 Cell Proliferation (Compound 51 0.0001 μm + Idarubicin 0.005 μM): −0.1
- Effect size (BIGL, HSA null model), MOLM-13 Cell Proliferation (Compound 51 0.0001 μm + Idarubicin 0.05 μM): 0.03
- Effect size (BIGL, HSA null model), MOLM-13 Cell Proliferation (Compound 51 0.0001 μm + Idarubicin 0.5 μM): 0.02
- Effect size (BIGL, HSA null model), MOLM-13 Cell Proliferation (Compound 51 0.0001 μm + Midostaurin 0.0012 μM): −0.07
- Effect size (BIGL, HSA null model), MOLM-13 Cell Proliferation (Compound 51 0.0001 μm + Midostaurin 0.006 μM): −0.02
- Effect size (BIGL, HSA null model), MOLM-13 Cell Proliferation (Compound 51 0.0001 μm + Midostaurin 0.025 μM): 0.05
- Effect size (BIGL, HSA null model), MOLM-13 Cell Proliferation (Compound 51 0.0001 μm + Midostaurin 0.05 μM): −0.06
- Effect size (BIGL, HSA null model), MOLM-13 Cell Proliferation (Compound 51 0.0001 μm + Midostaurin 0.1 μM): −0.04
- Effect size (BIGL, HSA null model), MOLM-13 Cell Proliferation (Compound 51 0.0001 μm + Midostaurin 0.5 μM): −0.02
- Effect size (BIGL, HSA null model), MOLM-13 Cell Proliferation (Compound 51 0.001 μm + Decitabine 0.0015 μM): −0.03
- Effect size (BIGL, HSA null model), MOLM-13 Cell Proliferation (Compound 51 0.001 μm + Decitabine 0.015 μM): −0.07
- Effect size (BIGL, HSA null model), MOLM-13 Cell Proliferation (Compound 51 0.001 μm + Decitabine 0.15 μM): −0.03
- Effect size (BIGL, HSA null model), MOLM-13 Cell Proliferation (Compound 51 0.001 μm + Decitabine 1.5 μM): −0.03
- Effect size (BIGL, HSA null model), MOLM-13 Cell Proliferation (Compound 51 0.001 μm + Decitabine 3 μM): −0.02
- Effect size (BIGL, HSA null model), MOLM-13 Cell Proliferation (Compound 51 0.001 μm + Idarubicin 0.0005 μM): −0.03
- Effect size (BIGL, HSA null model), MOLM-13 Cell Proliferation (Compound 51 0.001 μm + Idarubicin 0.001 μM): −0.07
- Effect size (BIGL, HSA null model), MOLM-13 Cell Proliferation (Compound 51 0.001 μm + Idarubicin 0.0025 μM): 0.04
- Effect size (BIGL, HSA null model), MOLM-13 Cell Proliferation (Compound 51 0.001 μm + Idarubicin 0.005 μM): −0.1
- Effect size (BIGL, HSA null model), MOLM-13 Cell Proliferation (Compound 51 0.001 μm + Idarubicin 0.05 μM): 0.02
- Effect size (BIGL, HSA null model), MOLM-13 Cell Proliferation (Compound 51 0.001 μm + Idarubicin 0.5 μM): 0.02
- Effect size (BIGL, HSA null model), MOLM-13 Cell Proliferation (Compound 51 0.001 μm + Midostaurin 0.0012 μM): −0.03
- Effect size (BIGL, HSA null model), MOLM-13 Cell Proliferation (Compound 51 0.001 μm + Midostaurin 0.006 μM): −0.02
- Effect size (BIGL, HSA null model), MOLM-13 Cell Proliferation (Compound 51 0.001 μm + Midostaurin 0.025 μM): 0.07
- Effect size (BIGL, HSA null model), MOLM-13 Cell Proliferation (Compound 51 0.001 μm + Midostaurin 0.05 μM): −0.06
- Effect size (BIGL, HSA null model), MOLM-13 Cell Proliferation (Compound 51 0.001 μm + Midostaurin 0.1 μM): −0.04
- Effect size (BIGL, HSA null model), MOLM-13 Cell Proliferation (Compound 51 0.001 μm + Midostaurin 0.5 μM): −0.02
- Effect size (BIGL, HSA null model), combination with Gilteritinib on MOLM-13 cell proliferation (Compound 51 0.001 μm, Gilteritinib 0.0005 μM): −0.01
- Effect size (BIGL, HSA null model), combination with Gilteritinib on MOLM-13 cell proliferation (Compound 51 0.001 μm, Gilteritinib 0.005 μM): −0.06
- Effect size (BIGL, HSA null model), combination with Gilteritinib on MOLM-13 cell proliferation (Compound 51 0.001 μm, Gilteritinib 0.01 μM): −0.1
- Effect size (BIGL, HSA null model), combination with Gilteritinib on MOLM-13 cell proliferation (Compound 51 0.001 μm, Gilteritinib 0.05 μM): −0.02
- Effect size (BIGL, HSA null model), combination with Gilteritinib on MOLM-13 cell proliferation (Compound 51 0.001 μm, Gilteritinib 0.1 μM): 0.02
- Effect size (BIGL, HSA null model), combination with Gilteritinib on MOLM-13 cell proliferation (Compound 51 0.001 μm, Gilteritinib 1 μM): −0.01
- Effect size (BIGL, HSA null model), MOLM-13 Cell Proliferation (Compound 51 0.01 μm + Decitabine 0.0015 μM): 0
- Effect size (BIGL, HSA null model), MOLM-13 Cell Proliferation (Compound 51 0.01 μm + Decitabine 0.015 μM): −0.09
- Effect size (BIGL, HSA null model), MOLM-13 Cell Proliferation (Compound 51 0.01 μm + Decitabine 0.15 μM): −0.16
- Effect size (BIGL, HSA null model), MOLM-13 Cell Proliferation (Compound 51 0.01 μm + Decitabine 1.5 μM): −0.05
- Effect size (BIGL, HSA null model), MOLM-13 Cell Proliferation (Compound 51 0.01 μm + Decitabine 3 μM): −0.02
- Effect size (BIGL, HSA null model), MOLM-13 Cell Proliferation (Compound 51 0.01 μm + Idarubicin 0.0005 μM): −0.35
- Effect size (BIGL, HSA null model), MOLM-13 Cell Proliferation (Compound 51 0.01 μm + Idarubicin 0.001 μM): −0.73
- Effect size (BIGL, HSA null model), MOLM-13 Cell Proliferation (Compound 51 0.01 μm + Idarubicin 0.0025 μM): −0.26
- Effect size (BIGL, HSA null model), MOLM-13 Cell Proliferation (Compound 51 0.01 μm + Idarubicin 0.005 μM): −0.11
- Effect size (BIGL, HSA null model), MOLM-13 Cell Proliferation (Compound 51 0.01 μm + Idarubicin 0.05 μM): 0.02
- Effect size (BIGL, HSA null model), MOLM-13 Cell Proliferation (Compound 51 0.01 μm + Idarubicin 0.5 μM): 0.02
- Effect size (BIGL, HSA null model), MOLM-13 Cell Proliferation (Compound 51 0.01 μm + Midostaurin 0.0012 μM): 0.01
- Effect size (BIGL, HSA null model), MOLM-13 Cell Proliferation (Compound 51 0.01 μm + Midostaurin 0.006 μM): −0.06
- Effect size (BIGL, HSA null model), MOLM-13 Cell Proliferation (Compound 51 0.01 μm + Midostaurin 0.025 μM): 0.1
- Effect size (BIGL, HSA null model), MOLM-13 Cell Proliferation (Compound 51 0.01 μm + Midostaurin 0.05 μM): −0.06
- Effect size (BIGL, HSA null model), MOLM-13 Cell Proliferation (Compound 51 0.01 μm + Midostaurin 0.1 μM): −0.04
- Effect size (BIGL, HSA null model), MOLM-13 Cell Proliferation (Compound 51 0.01 μm + Midostaurin 0.5 μM): −0.02
- Effect size (BIGL, HSA null model), combination with Gilteritinib on MOLM-13 cell proliferation (Compound 51 0.01 μm, Gilteritinib 0.0005 μM): 0.01
- Effect size (BIGL, HSA null model), combination with Gilteritinib on MOLM-13 cell proliferation (Compound 51 0.01 μm, Gilteritinib 0.005 μM): −0.08
- Effect size (BIGL, HSA null model), combination with Gilteritinib on MOLM-13 cell proliferation [1]: −0.25
- maxR call (synergy/antagonism), combination with Gilteritinib on MOLM-13 cell proliferation [1]: **
- Effect size (BIGL, HSA null model), combination with Gilteritinib on MOLM-13 cell proliferation (Compound 51 0.01 μm, Gilteritinib 0.05 μM): −0.09
- Effect size (BIGL, HSA null model), combination with Gilteritinib on MOLM-13 cell proliferation (Compound 51 0.01 μm, Gilteritinib 0.1 μM): 0.1
- Effect size (BIGL, HSA null model), combination with Gilteritinib on MOLM-13 cell proliferation (Compound 51 0.01 μm, Gilteritinib 1 μM): −0.01
- Effect size (BIGL, HSA null model), MOLM-13 Cell Proliferation (Compound 51 0.05 μm + Decitabine 0.0015 μM): −0.03
- Effect size (BIGL, HSA null model), MOLM-13 Cell Proliferation [2]: −0.13
- Synergy/antagonism call (maxR test), MOLM-13 Cell Proliferation [2]: **
- Effect size (BIGL, HSA null model), MOLM-13 Cell Proliferation [3]: −0.32
- Synergy/antagonism call (maxR test), MOLM-13 Cell Proliferation [3]: **
- Effect size (BIGL, HSA null model), MOLM-13 Cell Proliferation (Compound 51 0.05 μm + Decitabine 1.5 μM): −0.05
- Effect size (BIGL, HSA null model), MOLM-13 Cell Proliferation (Compound 51 0.05 μm + Decitabine 3 μM): −0.03
- Effect size (BIGL, HSA null model), MOLM-13 Cell Proliferation (Compound 51 0.05 μm + Idarubicin 0.0005 μM): −0.1
- Effect size (BIGL, HSA null model), MOLM-13 Cell Proliferation [4]: −0.41
- Synergy/antagonism call (maxR test), MOLM-13 Cell Proliferation [4]: **
- Effect size (BIGL, HSA null model), MOLM-13 Cell Proliferation (Compound 51 0.05 μm + Idarubicin 0.0025 μM): −0.23
- Effect size (BIGL, HSA null model), MOLM-13 Cell Proliferation (Compound 51 0.05 μm + Idarubicin 0.005 μM): −0.11
- Effect size (BIGL, HSA null model), MOLM-13 Cell Proliferation (Compound 51 0.05 μm + Idarubicin 0.05 μM): 0.02
- Effect size (BIGL, HSA null model), MOLM-13 Cell Proliferation (Compound 51 0.05 μm + Idarubicin 0.5 μM): 0.02
- Effect size (BIGL, HSA null model), MOLM-13 Cell Proliferation (Compound 51 0.05 μm + Midostaurin 0.0012 μM): −0.03
- Effect size (BIGL, HSA null model), MOLM-13 Cell Proliferation [5]: −0.21
- Synergy/antagonism call (maxR test), MOLM-13 Cell Proliferation [5]: **
- Effect size (BIGL, HSA null model), MOLM-13 Cell Proliferation (Compound 51 0.05 μm + Midostaurin 0.025 μM): −0.14
- Effect size (BIGL, HSA null model), MOLM-13 Cell Proliferation (Compound 51 0.05 μm + Midostaurin 0.05 μM): 0.08
- Effect size (BIGL, HSA null model), MOLM-13 Cell Proliferation (Compound 51 0.05 μm + Midostaurin 0.1 μM): −0.04
- Effect size (BIGL, HSA null model), MOLM-13 Cell Proliferation (Compound 51 0.05 μm + Midostaurin 0.5 μM): −0.02
- Effect size (BIGL, HSA null model), combination with Gilteritinib on MOLM-13 cell proliferation (Compound 51 0.05 μm, Gilteritinib 0.0005 μM): −0.03
